Laboratory results from patent US11447495B2, “Substituted benzo[f]imidazo[1,5-a][1,4]diazepines as GABA(a) receptor modulators” (priority 2016, dated 2022).

Legend:
HEK293 = experiment: Cytotoxicity, CellTiter-Glo cell viability assay, kidney cells; type: cell-based, human; conditions: human, HEK293 (HEK293T) human embryonic kidney cells
Experimental: The cytotoxicity of compounds may be evaluated by treating HEK293 human embryonic kidney cells with increasing concentrations of compounds for 24-48 hours followed by the quantification of living cells using Cell-Titer Glo (Promega).
Compounds with increased cytotoxicity can be identified using an in vitro cytotoxicity assay. Therefore, human embryonic kidney 293T (HEK293T) cell lines were purchased (ATCC) and cultured in 75 cm2 flasks (CellStar). Cells were grown in DMEM/High Glucose (Hyclone, #SH3024301) media to which non-essential amino acids (Hyclone, #SH30238.01), 10 mM HEPES (Hyclone, #SH302237.01), 5×106 units of penicillin and streptomycin (Hyclone, #SV30010), and 10% of heat inactivated fetal bovine serum (Gibco, #10082147) were added. Cells were harvested using 0.05% Trypsin (Hyclone, #SH3023601). The cell viability assay was evaluated using CellTiter-Glo™ Luminescent Cell Viability Assay Kit (Promega, Madison, Wis.), which contains luciferase and all its substrate except ATP. The controls for the cytotoxicity assay used were (E)-10-(bromotriphenylphosphoranyl)decyl 4-(4-(tert-butyl)phenyl)-4-oxobut-2-enoate (400 μM in DMSO, positive control) and DMSO (negative control). All luminescence readings were performed on a Tecan Infinite M1000 plate reader. Small volume transfers were performed on the Tecan Freedom EVO liquid handling system with a 100 nL pin tool transfer (V&P Scientific). Serial dilutions were done in 96-well polypropylene plates (Corning, #3365) and assays were conducted in 384-well white optical bottom plates. The assays were carried out in quadruplet in three independent runs. The data were normalized to the controls and if possible analyzed by nonlinear regression (GraphPad Prism).

[1] = Airway hyperresponsiveness (sRaw) to methacholine in ovalbumin asthma model; type: in vivo, ova s/c BALB/c mice; conditions: oral gavage, 100 mg/kg twice daily for 5 days, methacholine challenge
Experimental: Compounds described herein may reduce airway hyperresponsiveness in animal models of asthma. Therefore, mice may be sensitized three times with intra-peritoneal (i.p.) injections of 2 mg/kg/d of ovalbumin (Ova) emulsified in […] on days 0, 7 and 14 in a total volume of 100 μL. In addition, mice may be challenged intra-nasally (i.n.) with 1 mg/kg/d Ova for 5 days from days 23-27. Control mice may be sensitized with Ova and challenged with saline. The airway hyperresponsiveness measurements may be carried out with DSI's Buxco® FinePointe Non-Invasive Airway Mechanics (NAM) instrument consisting of a nasal chamber in combination with the thoracic chamber that allows the computation of specific airway resistance (sRaw). Treated conscious, spontaneously breathing Ova S/C mice may be exposed to aerosolized phosphate buffered saline (PBS) (for the baseline measurement) or methacholine (1.5625-12.5 mg/mL) for 1 minute and readings (sRaw) may be taken and averaged for 3 minutes after each nebulization.
Drug treatment protocol: Sterile solutions of compounds were prepared in 2% hydroxypropyl methylcellulose solution (Sigma-Aldrich, St. Louis, Mo.) and 2.5% polyethylene glycol (Sigma Aldrich, St. Louis, Mo.) for oral administration in a biological safety cabinet. A fine suspension was obtained by grinding the mixture with a mortar and pestle. Drugs were administered individually at 100 mg/kg by oral gavage (200 ul) with 20G gavage needles (Kent Scientific Corporation, Torrington Conn.) to groups of ova s/c BALB/c twice daily for 5 days during the ova challenge period. Mice received a single p.o. dose of the compounds just before airway parameter measurements. Compounds for i.p. injection were prepared in 10% DMSO, 40% propylene glycol, and 50% PBS and given as 100 ul injection. Mice were monitored daily after drug administration. Assessment of Airway hyper-responsiveness: Airway hyper-responsiveness to methacholine in conscious, spontaneously breathing animals was measured by DSI's Buxco® FinePointe Non-Invasive Airway Mechanics (NAM) instrument. Before measurements were taken, mice were acclimated to the chambers 15 minutes daily for 5 days. In addition, an ovalbumin sensitization and challenge protocol consists of randomized male BALB/c mice that were sensitized three times with intra-peritoneal (i.p.) injections of 2 mg/kg/d of ovalbumin (Ova) (Sigma-Aldrich, St. Louis, Mo.) emulsified in 2 mg of Alum (Imject Alum; Thermo Scientific, Pierce, Rockford, Ill.) on days 0, 7 and 14 in a total volume of 100 μL. The mice were then challenged intra-nasally (i.n.) with 1 mg/kg/d Ova for 5 days from days 23-27. Control mice were sensitized with Ova and challenged with saline. The chambers were also calibrated each time before data collection. Briefly, the nasal chamber in combination with the thoracic chamber allows the computation of specific airway resistance (sRaw). The FinePointe software computes specific airway resistance (sRaw) with all other ventilatory parameters derived by the NAM analyzer. Mice were exposed to aerosolized PBS (for the baseline measurement) or methacholine (1.5625-12.5 mg/mL) for 1 minute and readings were taken and averaged for 3 minutes after each nebulization. Data obtained were presented as sRaw versus the methacholine concentration (mg/mL) used to generate the aerosol. FIG. 5A-5F show compound effects on airway hyperresponsiveness. Specific airway resistance (sRaw) was measured at increasing dosages of methacholine by a DSI's Buxco FinePointe non-invasive airway mechanics instrument. Ova s/c BALB/c mice were administered all compounds via oral gavage, 100 mg/kg twice daily for 5 days. Data represent mean±SEM from 10 mice in each group. *, **, and *** indicate p<0.05, p<0.01, p<0.001 significance, respectively, compared to vehicle treated ova s/c BALB/c mice.

lung cells = experiment: Lung cell proliferation by EdU incorporation; type: in vivo; conditions: Ova s/c mice, treated versus non-treated
Experimental: ASM hyperplasia was determined by incooperation of EdU into the DNA of newly formed cells. Herein, at the end of the ovalbumin sensitization and challenge protocol, mice received a single i.p. injection of EdU (Invitrogen, Carlsbad, Calif.) at a dose of 100 mg/kg. Mice were euthanized 4 hours after injection and the lungs formalin fixed, harvested and paraffin embedded. 6 μm sections of formalin fixed and paraffin embedded lung sections were mounted onto Fisher Superfrost Plus Slides. EdU staining was conducted using Click-iT™ EdU imaging kit (Invitrogen, Carlsbad, Calif.) according to manufacturer's instructions. Briefly lungs were deparaffinized in histoclear and rehydrated in graded ethanol. Tissue sections were washed twice with 3% bovine serum albumin (BSA) in PBS and permeablized with 0.5% Triton X-100 in PBS for 20 minutes. The sections were again washed twice with 3% BSA in PBS and then incubated with a Click-iT™ reaction cocktail containing Click-iT™ reaction buffer, CuSO4, Alexa Fluor® 488 Azide, and reaction buffer additive for 30 minutes in the dark. […] Lung sections of non-treated and GL-II-93 treated Ova s/c mice were analyzed for the incooperation of EdU, a thymidine analog that can be visualized after click chemistry with a fluorescent azide. For the negative control EdU was not injected resulting in no visible fluorescence. […]

SMILES | LD50 HEK293 (Kidney) (HEK293) [µM] | airway hyperresponsiveness (sRaw) [1] | proliferation of lung cells (EdU) (lung cells)
C[C@H]1N=C(c2ccccc2F)c2cc(Br)ccc2-n2cnc(C(=O)O)c21 [GL-II-93, (R)-8-bromo-6-(2-fluorophenyl)-4-methyl-4H-benzo[f]imidazo[1,5-a][1,4]diazepine-3-carboxylic acid] | >400 | reduced airway hyperresponsiveness at one or multiple concentrations of methacholine | Non-treated Ova S/C mice showed a high proliferation rate in comparison to GL-II-93 treated animals
CCOC(=O)c1ncn2c1[C@@H]1CCCN1C(=O)c1cc(O)ccc1-2 [RJ-02-50, ethyl (S)-7-hydroxy-9-oxo-11,12,13,13a-tetrahydro-9H-benzo[e]imidazo[5,1-c]pyrrolo[1,2-a][1,4]diazepine-1-carboxylate] | >400 | reduced airway hyperresponsiveness at one or multiple concentrations of methacholine | –
O=C1c2cc(O)ccc2-n2cnc(-c3cnco3)c2[C@@H]2CCCN12 [RJ-03-30, (S)-7-hydroxy-1-(oxazol-5-yl)-11,12,13,13a-tetrahydro-9H-benzo[e]imidazo[5,1-c]pyrrolo[1,2-a][1,4]diazepin-9-one] | >400 | not able to alleviate airway hyperresponsiveness | –
C#Cc1ccc2c(c1)C(c1ccccc1F)=N[C@H](C)c1c(C(=O)O)ncn1-2 [SH-053-2′F-R-CH3-Acid, (R)-8-ethynyl-6-(2-fluorophenyl)-4-methyl-4H-benzo[f]imidazo[1,5-a][1,4]diazepine-3-carboxylic acid] | >400 | reduced airway hyperresponsiveness at one or multiple concentrations of methacholine | –
